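Values below derive from 48-hour exposures of cells grown in 96-well plates, with endpoints linearly interpolated between the two concentrations bracketing the appropriate inhibition level. The concentration for full growth arrest is given as TGI.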
Tests used:
Assay in all cases: NCI-60 cell line screen, 48 h
SR leukemia = test system: SR leukemia
RPMI-8226 leukemia = test system: RPMI-8226 leukemia
SNB-75 CNS = test system: SNB-75 CNS
MCF7 breast = test system: MCF7 breast
U251 CNS = test system: U251 CNS
CAKI-1 renal = test system: CAKI-1 renal
UACC-62 melanoma = test system: UACC-62 melanoma
SN12C renal = test system: SN12C renal
SF-295 CNS = test system: SF-295 CNS
HL-60(TB) leukemia = test system: HL-60(TB) leukemia
EKVX NSCLC = test system: EKVX NSCLC
COLO 205 colon = test system: COLO 205 colon
BT-549 breast = test system: BT-549 breast
OVCAR-3 ovarian = test system: OVCAR-3 ovarian
SW-620 colon = test system: SW-620 colon
NCI-H23 lung = test system: NCI-H23 lung
SK-MEL-5 melanoma = test system: SK-MEL-5 melanoma
IGROV1 ovarian = test system: IGROV1 ovarian
PC-3 prostate = test system: PC-3 prostate
OVCAR-8 ovarian = test system: OVCAR-8 ovarian
SNB-19 CNS = test system: SNB-19 CNS
T-47D breast = test system: T-47D breast
DU-145 prostate = test system: DU-145 prostate
HOP-92 NSCLC = test system: HOP-92 NSCLC
MOLT-4 leukemia = test system: MOLT-4 leukemia
SK-MEL-2 melanoma = test system: SK-MEL-2 melanoma
NCI-H522 lung = test system: NCI-H522 lung
KM12 colon = test system: KM12 colon
HCC-2998 colon = test system: HCC-2998 colon
UACC-257 melanoma = test system: UACC-257 melanoma
SK-MEL-28 melanoma = test system: SK-MEL-28 melanoma
OVCAR-5 ovarian = test system: OVCAR-5 ovarian
HCT-15 colon = test system: HCT-15 colon
HT29 colon = test system: HT29 colon
MDA-MB-231 breast = test system: MDA-MB-231 breast
OVCAR-4 ovarian = test system: OVCAR-4 ovarian
786-0 renal = test system: 786-0 renal
K-562 leukemia = test system: K-562 leukemia
HOP-62 NSCLC = test system: HOP-62 NSCLC
HS 578T breast = test system: HS 578T breast
MALME-3M melanoma = test system: MALME-3M melanoma
MDA-N = test system: MDA-N
MDA-MB-435 = test system: MDA-MB-435
CCRF-CEM leukemia = test system: CCRF-CEM leukemia
LOX IMVI melanoma = test system: LOX IMVI melanoma
SF-268 CNS = test system: SF-268 CNS
ACHN renal = test system: ACHN renal
HCT-116 colon = test system: HCT-116 colon
A549 NSCLC = test system: A549 NSCLC
TK-10 renal = test system: TK-10 renal
M14 melanoma = test system: M14 melanoma
NCI-H226 lung = test system: NCI-H226 lung
SF-539 CNS = test system: SF-539 CNS
NCI-H460 lung = test system: NCI-H460 lung
SK-OV-3 ovarian = test system: SK-OV-3 ovarian
RXF 393 renal = test system: RXF 393 renal
NCI/ADR-RES ovarian = test system: NCI/ADR-RES ovarian
UO-31 renal = test system: UO-31 renal

In the case of COc1cc(C2SC(N)=Nc3c2c(C)nn3C(=O)c2ccc(Cl)cc2)cc(OC)c1OC (configuration not stated), the TGI (SR leukemia) is reported as greater than 10 µM, the TGI (RPMI-8226 leukemia) is reported as greater than 10 µM and the TGI (SNB-75 CNS) is reported as greater than 10 µM. It also gave a TGI (MCF7 breast) greater than 10 µM, a TGI (U251 CNS) greater than 10 µM and a TGI (CAKI-1 renal) greater than 10 µM. It also gave a TGI (UACC-62 melanoma) greater than 10 µM, a TGI (SN12C renal) greater than 10 µM and a TGI (SF-295 CNS) greater than 10 µM. For the same compound, the TGI (HL-60(TB) leukemia) was greater than 10 µM, the TGI (EKVX NSCLC) was greater than 10 µM and the TGI (COLO 205 colon) was greater than 10 µM. It also gave a TGI (BT-549 breast) greater than 10 µM, a TGI (OVCAR-3 ovarian) greater than 10 µM and a TGI (SW-620 colon) greater than 10 µM. For the same compound, the TGI (NCI-H23 lung) was greater than 10 µM, the TGI (SK-MEL-5 melanoma) was greater than 10 µM and the TGI (IGROV1 ovarian) was greater than 10 µM. For the same compound, the TGI (PC-3 prostate) was greater than 10 µM, the TGI (OVCAR-8 ovarian) was greater than 10 µM and the TGI (SNB-19 CNS) was greater than 10 µM. It also gave a TGI (T-47D breast) greater than 10 µM, a TGI (DU-145 prostate) greater than 10 µM and a TGI (HOP-92 NSCLC) greater than 10 µM. For the same compound, the TGI (MOLT-4 leukemia) was greater than 10 µM, the TGI (SK-MEL-2 melanoma) was greater than 10 µM and the TGI (NCI-H522 lung) was greater than 10 µM. The TGI (KM12 colon) was greater than 10 µM, the TGI (HCC-2998 colon) was greater than 10 µM and the TGI (UACC-257 melanoma) was greater than 10 µM. For the same compound, the TGI (SK-MEL-28 melanoma) was greater than 10 µM, the TGI (OVCAR-5 ovarian) was greater than 10 µM and the TGI (HCT-15 colon) was greater than 10 µM. It also gave a TGI (HT29 colon) greater than 10 µM, a TGI (MDA-MB-231 breast) greater than 10 µM and a TGI (OVCAR-4 ovarian) greater than 10 µM. For the same compound, the TGI (786-0 renal) was greater than 10 µM, the TGI (K-562 leukemia) was greater than 10 µM and the TGI (HOP-62 NSCLC) was greater than 10 µM. For the same compound, the TGI (HS 578T breast) was greater than 10 µM, the TGI (MALME-3M melanoma) was greater than 10 µM and the TGI (MDA-N) was greater than 10 µM. It also gave a TGI (MDA-MB-435) greater than 10 µM, a TGI (CCRF-CEM leukemia) greater than 10 µM and a TGI (LOX IMVI melanoma) greater than 10 µM. It also gave a TGI (SF-268 CNS) greater than 10 µM, a TGI (ACHN renal) greater than 10 µM and a TGI (HCT-116 colon) greater than 10 µM. For the same compound, the TGI (A549 NSCLC) was greater than 10 µM, the TGI (TK-10 renal) was greater than 10 µM and the TGI (M14 melanoma) was greater than 10 µM. It also gave a TGI (NCI-H226 lung) greater than 10 µM, a TGI (SF-539 CNS) greater than 10 µM and a TGI (NCI-H460 lung) greater than 10 µM. The TGI (SK-OV-3 ovarian) was greater than 10 µM, the TGI (RXF 393 renal) was greater than 10 µM and the TGI (NCI/ADR-RES ovarian) was greater than 10 µM.
COC1CC(OC2C(C)OC(OC3C(C)OC(OC4C(C)OC(O[C@H]5CC[C@@]6(C)C(=CC[C@]7(O)[C@@H]6C[C@@H](OC(=O)/C=C(\C)C(C)C)[C@@]6(C)[C@]7(O)CC[C@@]6(O)C(C)=O)C5)CC4OC)CC3OC)CC2OC)OC(C)C1O (some centres not stated) gave a TGI (SR leukemia) greater than 12.5 µM, a TGI (RPMI-8226 leukemia) greater than 12.5 µM and a TGI (SNB-75 CNS) greater than 12.5 µM. It also gave a TGI (MCF7 breast) greater than 12.5 µM, a TGI (U251 CNS) greater than 12.5 µM and a TGI (CAKI-1 renal) greater than 12.5 µM. For the same compound, the TGI (UACC-62 melanoma) was greater than 12.5 µM, the TGI (SN12C renal) was greater than 12.5 µM and the TGI (SF-295 CNS) was greater than 12.5 µM. For the same compound, the TGI (HL-60(TB) leukemia) was greater than 12.5 µM, the TGI (EKVX NSCLC) was greater than 12.5 µM and the TGI (COLO 205 colon) was greater than 12.5 µM. For the same compound, the TGI (BT-549 breast) was greater than 12.5 µM, the TGI (OVCAR-3 ovarian) was greater than 12.5 µM and the TGI (SW-620 colon) was greater than 12.5 µM. For the same compound, the TGI (NCI-H23 lung) was greater than 12.5 µM, the TGI (SK-MEL-5 melanoma) was greater than 12.5 µM and the TGI (IGROV1 ovarian) was greater than 12.5 µM. The TGI (PC-3 prostate) was greater than 12.5 µM, the TGI (OVCAR-8 ovarian) was greater than 12.5 µM and the TGI (SNB-19 CNS) was greater than 12.5 µM. It also gave a TGI (T-47D breast) greater than 12.5 µM, a TGI (DU-145 prostate) greater than 12.5 µM and a TGI (HOP-92 NSCLC) greater than 12.5 µM. For the same compound, the TGI (MOLT-4 leukemia) was greater than 12.5 µM, the TGI (SK-MEL-2 melanoma) was greater than 12.5 µM and the TGI (NCI-H522 lung) was greater than 12.5 µM. The TGI (KM12 colon) was greater than 12.5 µM, the TGI (HCC-2998 colon) was greater than 12.5 µM and the TGI (UACC-257 melanoma) was greater than 12.5 µM. It also gave a TGI (OVCAR-5 ovarian) greater than 12.5 µM, a TGI (HCT-15 colon) greater than 12.5 µM and a TGI (HT29 colon) greater than 12.5 µM. It also gave a TGI (MDA-MB-231 breast) greater than 12.5 µM, a TGI (OVCAR-4 ovarian) greater than 12.5 µM and a TGI (786-0 renal) greater than 12.5 µM. It also gave a TGI (K-562 leukemia) greater than 12.5 µM, a TGI (HOP-62 NSCLC) greater than 12.5 µM and a TGI (UO-31 renal) greater than 12.5 µM. The TGI (HS 578T breast) was greater than 12.5 µM, the TGI (MALME-3M melanoma) was greater than 12.5 µM and the TGI (MDA-N) was greater than 12.5 µM. The TGI (MDA-MB-435) was greater than 12.5 µM, the TGI (CCRF-CEM leukemia) was greater than 12.5 µM and the TGI (LOX IMVI melanoma) was greater than 12.5 µM. It also gave a TGI (SF-268 CNS) greater than 12.5 µM, a TGI (ACHN renal) greater than 12.5 µM and a TGI (HCT-116 colon) greater than 12.5 µM. The TGI (A549 NSCLC) was greater than 12.5 µM, the TGI (TK-10 renal) was greater than 12.5 µM and the TGI (M14 melanoma) was greater than 12.5 µM. For the same compound, the TGI (NCI-H226 lung) was greater than 12.5 µM, the TGI (SF-539 CNS) was greater than 12.5 µM and the TGI (SK-OV-3 ovarian) was greater than 12.5 µM. It also gave a TGI (NCI/ADR-RES ovarian) greater than 12.5 µM.

From PubChem BioAssay (NCI)
